According to the supplement of paper PMC13380429:
Where a name gives a salt, the structure may show the parent alone. ± gives the standard deviation of the averaged measurements.

Tests used:
Conditions in all cases: 72 h
[1] = test system: U2OS; assay: cell viability relative to DMSO; higher = less toxic
[2] = test system: Calu-3; assay: as above
[3] = test system: Caco-2; assay: as above
[4] = test system: Vero E6; assay: as above
[5] = test system: HepG2; assay: as above
[6] = test system: U2OS; assay: drug sensitivity score (DSS) for viability; higher = more toxic; extreme values may be limits of the assay
[7] = test system: Calu-3; assay: as above
[8] = test system: Caco-2; assay: as above
[9] = test system: Vero E6; assay: as above
[10] = test system: HepG2; assay: as above
[11] = test system: U2OS; assay: relative viability EC50 (midpoint between 100% and the lowest measured viability); higher = less toxic
[12] = test system: Calu-3; assay: as above
[13] = test system: Caco-2; assay: as above
[14] = test system: Vero E6; assay: as above
[15] = test system: HepG2; assay: as above

SMILES | cell viability ([1]; 1 nM) [%] | cell viability ([1]; 10 nM) [%] | cell viability ([1]; 100 nM) [%] | cell viability ([1]; 1000 nM) [%] | cell viability ([1]; 10000 nM) [%] | cell viability ([2]; 1 nM) [%] | cell viability ([2]; 10 nM) [%] | cell viability ([2]; 100 nM) [%] | cell viability ([2]; 1000 nM) [%] | cell viability ([2]; 10000 nM) [%] | cell viability ([3]; 1 nM) [%] | cell viability ([3]; 10 nM) [%] | cell viability ([3]; 100 nM) [%] | cell viability ([3]; 1000 nM) [%] | cell viability ([3]; 10000 nM) [%] | cell viability ([4]; 1 nM) [%] | cell viability ([4]; 10 nM) [%] | cell viability ([4]; 100 nM) [%] | cell viability ([4]; 1000 nM) [%] | cell viability ([4]; 10000 nM) [%] | cell viability ([5]; 1 nM) [%] | cell viability ([5]; 10 nM) [%] | cell viability ([5]; 100 nM) [%] | cell viability ([5]; 1000 nM) [%] | cell viability ([5]; 10000 nM) [%] | drug sensitivity score [6] | drug sensitivity score [7] | drug sensitivity score [8] | drug sensitivity score [9] | drug sensitivity score [10] | relative viability EC50 [11] [µM] | relative viability EC50 [12] [µM] | relative viability EC50 [13] [µM] | relative viability EC50 [14] [µM] | relative viability EC50 [15] [µM]
CC(C)(C)NC(=O)N[C@H](C(=O)N1C[C@H]2[C@@H]([C@H]1C(=O)NC(CC1CCC1)C(=O)C(N)=O)C2(C)C)C(C)(C)C (stereo not given in full) [Boceprevir] | 102 | 93.7 | 100 | 96.1 | 91.6 | 102 | 95.1 | 95.7 | 100 | 102 | 103 | 94.4 | 108 | 92.5 | 105 | 102 | 100 | 102 | 92.7 | 99.9 | 102 | 102 | 95.6 | 100 | 105 | 0 | 0 | 0 | 0 | 0 | > 10 | > 10 | > 10 | > 10 | > 10
C[C@H]1CCc2c(cc(Br)c(F)c2Br)N1C=O [CE3F4] | 98.3 | 101 | 99.6 | 102 | 96.1 | 105 | 102 | 89.6 | 93.7 | 90 | 105 | 99.9 | 91.9 | 104 | 88.8 | 103 | 101 | 98.2 | 93.8 | 102 | 110 | 99.2 | 113 | 100 | 103 | 0 | 0.2 | 0 | 0 | 0 | > 10 | > 10 | > 10 | > 10 | > 10
Oc1cc2c(cc1O)[C@H](Cc1cccc3ccccc13)NCC2 [CKD-712] | 101 | 93.8 | 98.6 | 112 | 96.6 | 105 | 95 | 108 | 105 | 102 | 88.6 | 94.2 | 105 | 98.4 | 92.4 | 102 | 100 | 100 | 99 | 95.7 | 106 | 101 | 97.9 | 99.7 | 84.8 | 0 | 0 | 0 | 0 | 0.3 | > 10 | > 10 | > 10 | > 10 | > 10
CCC[C@H](Nc1nc(-c2ccc(NC(=O)NCC)c(OC)c2)ncc1C)c1cccnc1 [CYT-997] | 97.2 | 102 | 45.6 | 19.1 | 18.2 | 99.4 | 96 | 54.4 | 37 | 37.5 | 97.9 | 93.5 | 84 | 42.6 | 38.2 | 95.7 | 100 | 98.5 | 22 | 23.7 | 101 | 106 | 51.8 | 36.3 | 33.3 | 21.3 | 17.4 | 12.4 | 14.4 | 17.9 | 0.0761 | 0.0547 | 0.198 | 0.303 | 0.0687
O=C1Nc2ccc(Cl)c3c2C1(CCCCN1CC=C(c2ccc(Cl)cc2)CC1)CCC3 (stereo not given) [DR-4485] | 96.2 | 97.5 | 98.6 | 94.7 | 2.4 | 105 | 87.6 | 103 | 99.9 | 1.7 | 103 | 95.3 | 99.6 | 92.3 | 4.8 | 100 | 96.7 | 92.9 | 91.1 | 42.5 | 93.7 | 100 | 94.1 | 102 | -0.2 | 6.2 | 5.5 | 6.5 | 4.6 | 5.4 | 2.74 | 3.16 | 2.5 | 1.95 | 3.27
COc1cccc2c1C(=O)c1c(O)c3c(c(O)c1C2=O)C[C@@](O)(C(=O)CO)C[C@@H]3O[C@H]1C[C@H](N)[C@@H](O)[C@H](C)O1 [Epirubicin Hydrochloride] | 95.5 ± 1.4 | 99.7 ± 0.28 | 90.2 ± 1.8 | 17.1 ± 9.9 | 3.15 ± 1.3 | 101 ± 3.3 | 102 ± 6.4 | 80 ± 6.6 | 41.2 ± 1.1 | 30.4 ± 0.49 | 95.8 ± 5.9 | 97 ± 6.3 | 89 ± 1.4 | 40.8 ± 1.2 | 30.9 ± 1.7 | 100 ± 2 | 96.5 ± 2 | 96 ± 3.5 | 71.1 ± 3.7 | 34.4 ± 8 | 102.8 ± 0.14 | 93.2 ± 12 | 49.7 ± 0.57 | 12.25 ± 0.071 | 4.25 ± 0.64 | 16.6 ± 1.5 | 13.3 ± 0.99 | 12.3 ± 0.35 | 7 | 22.9 ± 0.14 | 0.349 | 0.224 | 0.3 | 1.13 | 0.0903
CC(=O)Nc1ccc(Cc2ccc(NC(C)=O)cc2)cc1 [FH1] | 98.8 | 96.6 | 99.4 | 104 | 103 | 95.7 | 99.9 | 84.2 | 92.8 | 104 | 107 | 100 | 104 | 93.7 | 102 | 99.8 | 98.1 | 96.8 | 102 | 98.9 | 99.5 | 104 | 107 | 102 | 96.8 | 0 | 0 | 0 | 0 | 0 | > 10 | > 10 | > 10 | > 10 | > 10
